This is an account of results in US6903099B2, “Condensed pyrazindione derivatives” (Lilly Icos LLC, priority 2000, dated 2005).

One series has as its target T1, recombinant human PDE5 (Homo sapiens, UniProt O76074).
T1 construct: host or cells: Saccharomyces cerevisiae strain BJ2-54 (ATCC 74465)
In words: Inhibitory effect on cGMP-PDE (PDE5 IC50 determination). The following applies: in vitro, read-out: IC50 versus PDE5. Type of series: biochemical. The protocol: The compounds of structural formula (I) were tested for an ability to inhibit PDE5. The ability of a compound to inhibit PDE5 activity is related to the IC50 value for the compound, i.e., the concentration of inhibitor required for 50% inhibition of enzyme activity. The IC50 value for compounds of structural formula (I) were determined using recombinant human PDE5.
Phosphodiesterase activity of the preparations was determined as follows. PDE assays utilizing a charcoal separation technique were performed essentially as described in Loughney et al. (1996). In this assay, PDE activity converts [32P]cAMP or [32P]cGMP to the corresponding [32P]5′-AMP or [32P]5′-GMP in proportion to the amount of PDE activity present. The [32P]5′-AMP or [32P]5′-GMP then was quantitatively converted to free [32P]phosphate and unlabeled adenosine or guanosine by the action of snake venom 5′-nucleotidase. […] The assay was performed at 30° C. in a 100 μL reaction mixture containing (final concentrations) 40 mM Tris HCl (pH 8.0), 1 μM ZnSO4, 5 mM MgCl2, and 0.1 mg/mL bovine serum albumin (BSA). PDE enzyme was present in quantities that yield <30% total hydrolysis of substrate (linear assay conditions). The assay was initiated by addition of substrate ([…] [32P]cAMP or cGMP), and the mixture was incubated for 12 minutes. Seventy-five (75) μg of Crotalus atrox venom then was added, and the incubation was continued for 3 minutes (15 minutes total). The reaction was stopped by addition of 200 μL of activated charcoal (25 mg/mL suspension in 0.1 M NaH2PO4, pH 4). After centrifugation (750×g for 3 minutes) to sediment the charcoal, a sample of the supernatant was taken for radioactivity determination in a scintillation counter and the PDE activity was calculated.
cGMP-PDE activity of compounds of the present invention was measured using a one-step assay adapted from Wells et al., Biochim. Biophys. Acta, 384, 430 (1975). The reaction medium contained 50 mM Tris-HCl, pH 7.5, 5 mM magnesium acetate, 250 μg/ml 5′-Nucleotidase, 1 mM EGTA, and 0.15 μM 8-[H^3]-cGMP. Unless otherwise indicated, the enzyme used was a human recombinant PDE5 (ICOS Corp., Bothell, Wash.).
Compounds of the invention were dissolved in DMSO finally present at 2% in the assay.

`CN1CC(=O)N2[C@H](c3ccc4c(c3)OCO4)c3[nH]c4ncccc4c3C[C@@H]2C1=O` (racemic) [Example 1, (+/−,cis)-10-Benzo[1,3]dioxol-5-yl-7-methyl-5,5a,7,8,10,11-hexahydro-1,7,9a,11-tetraazabeno[β]fluorene-6,9-dione] showed a melting point of 262 to 276 °C. Further, the IC50 on recombinant human PDE5 was 2.3 nM.

The molecule `CN1CC(=O)N2[C@H](c3ccc4c(c3)OCO4)c3sc4ccccc4c3C[C@@H]2C1=O` (racemic) [Example 4, (+/−,cis)-10-Benzo[1,3]dioxol-5-yl-7-methyl-5,7,8,10-tetrahydro-5aH-11-thia-7,9a-diazabenzo[β]fluorene-6,9-dione] gave a melting point of 245 to 266 °C. Further, the IC50 on recombinant human PDE5 is 555 nM.

Turning to `CN1CC(=O)N2[C@H](c3ccc4c(c3)OCO4)c3c([nH]c4ccccc34)C[C@@H]2C1=O` [Example 5(a), (5R,9aR)-5-Benzo(1,3)dioxol-5-yl-8-methyl-5,7,8,9a,10,11-hexahydro-5a,8,11-triaza-benzo[b]fluorane-8,9-dione], the melting point lay within 274 to 277 °C. In addition, the IC50 on recombinant human PDE5 turned out to be 338 nM.

In turn, `CN1CC(=O)N2[C@@H](c3ccc4c(c3)OCO4)c3c([nH]c4ccccc34)C[C@@H]2C1=O` [Example 5(b), (5S,9aR)-5-Benzo[1,3]dioxol-5-yl-8-methyl-5,7,8,9a,10,11-hexahydro-5a,8,11-triaza-benzo[b]fluorene-8,9-dione] gave a melting point of 274 to 277 °C. Moreover, the IC50 at recombinant human PDE5 worked out at 125 nM.
